Target: T1, HPK1 (Homo sapiens, UniProt Q92918)
T1 construct: A HiBiT tag was introduced by CRISPR on the N terminus of HPK1 in Jurkat cells; host or cells: Jurkat cells (ATCC TIB-152), monoclonal line with CRISPR knock-in of HiBiT at the endogenous HPK1 locus
Experiment: HPK1 Cellular HiBit Degradation Assay
Type: cell-based
Settings: HiBiT HPK1 Jurkat cells, 24 hrs; for DC50: concentration at which 50% of HPK1 was remaining, read-out: DC50 Category; for Dmax: Jurkat, maximum degradation vs DMSO vehicle control, read-out: Dmax Category
Method in brief: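 Degraders are dosed in an 11-point series (10 uM to 0.1 nM final) onto Jurkat cells carrying an N-terminal HiBiT tag on endogenous HPK1. After 24 hrs at 37° C, lysis-based HiBiT luminescence quantifies remaining HPK1 relative to vehicle, and curve fitting gives DC50 and Dmax.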

T1 sequence (Q92918 whole entry): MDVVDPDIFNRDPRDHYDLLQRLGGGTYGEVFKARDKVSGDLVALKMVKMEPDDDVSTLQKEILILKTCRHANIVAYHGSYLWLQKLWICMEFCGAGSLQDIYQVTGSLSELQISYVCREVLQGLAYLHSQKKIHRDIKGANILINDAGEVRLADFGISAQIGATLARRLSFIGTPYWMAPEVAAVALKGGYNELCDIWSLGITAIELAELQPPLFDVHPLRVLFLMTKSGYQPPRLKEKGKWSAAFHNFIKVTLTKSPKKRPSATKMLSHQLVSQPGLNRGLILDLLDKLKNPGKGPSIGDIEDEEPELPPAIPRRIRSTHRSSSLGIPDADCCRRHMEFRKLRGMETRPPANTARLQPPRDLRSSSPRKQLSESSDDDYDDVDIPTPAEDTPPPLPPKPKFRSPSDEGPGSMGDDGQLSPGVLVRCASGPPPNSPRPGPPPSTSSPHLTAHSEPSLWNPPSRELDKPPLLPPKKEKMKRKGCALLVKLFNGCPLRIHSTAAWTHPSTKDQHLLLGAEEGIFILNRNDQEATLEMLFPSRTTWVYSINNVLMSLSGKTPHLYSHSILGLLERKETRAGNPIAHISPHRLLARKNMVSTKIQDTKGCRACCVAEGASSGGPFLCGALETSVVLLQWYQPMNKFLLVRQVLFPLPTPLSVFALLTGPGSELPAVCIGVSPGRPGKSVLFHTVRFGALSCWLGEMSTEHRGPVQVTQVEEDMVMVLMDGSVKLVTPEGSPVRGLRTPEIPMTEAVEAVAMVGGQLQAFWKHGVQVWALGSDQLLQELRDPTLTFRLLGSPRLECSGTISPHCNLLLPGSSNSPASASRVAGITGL

DC50 | Dmax | Structure (SMILES)
100 to 500 nM | > 85% | CC(C)n1cnc2cc(-c3ccc4c(c3)N([C@H]3C[C@@H](N5CCCCC5)C3)C(=O)C43CCN(C(=O)C4(C)CCN(C(=O)C5CCN(c6ccc(C7CCC(=O)NC7=O)cn6)CC5)CC4)CC3)nc(Oc3ccccc3F)c21 (stereo partly drawn) [Example 164, 3-(6-{4-[4-({6-[4-(2-fluorophenoxy)-3-(propan-2-yl)-3H-imidazo[4,5-c]pyridin-6-yl]-2-oxo-1-[(1S,3S)-3-(piperidin-1-yl)cyclobutyl]-1,2-dihydrospiro[indole-3,4′-piperidin]-1′-yl}carbonyl)-4-methylpiperidine-1-carbonyl]piperidin-1-yl}pyridin-3-yl)piperidine-2,6-dione]
< 100 nM | 70 to 85% | CC(C)n1cnc2cc(-c3ccc4c(c3)N([C@H]3C[C@@H](N5CCCCC5)C3)C(=O)C43CCN(C(=O)[C@H]4CC[C@H](C(=O)N5CCC(N(C)c6ccc(C7CCC(=O)NC7=O)cc6)CC5)CC4)CC3)nc(Nc3ccccc3F)c21 (mixture of isomers) [Example 135, (3RS)-3-{4-[methyl({1-[(1R,4R)-4-[(6-{4-[(2-fluorophenyl)amino]-3-(propan-2-yl)-3H-imidazo[4,5-c]pyridin-6-yl}-2-oxo-1-[(1S,3S)-3-(piperidin-1-yl)cyclobutyl]-1,2-dihydrospiro[indole-3,4′-piperidin]-1′-yl)carbonyl]cyclohexanecarbonyl]piperidin-4-yl})amino]phenyl}piperidine-2,6-dione]
< 100 nM | 70 to 85% | CC(C)n1cnc2cc(-c3ccc4c(c3)N([C@H]3C[C@@H](N5CCCCC5)C3)C(=O)C43CCN(C(=O)C4(C)CCN(C(=O)C5CCN(c6ccc(C7CCC(=O)NC7=O)cc6F)CC5)CC4)CC3)nc(NC3CC3)c21 (mixture of isomers) [Example 152, (3RS)-3-(4-{4-[4-({6-[4-(cyclopropylamino)-3-isopropylimidazo[4,5-c]pyridin-6-yl]-2-oxo-1-[(1S,3S)-3-(piperidin-1-yl)cyclobutyl]spiro[indole-3,4′-piperidin]-1′-yl}carbonyl)-4-methylpiperidine-1-carbonyl]piperidin-1-yl}-3-Fluorophenyl)piperidine-2,6-dione]
100 to 500 nM | 70 to 85% | CC(C)n1cnc2cc(-c3ccc4c(c3)N([C@H]3C[C@@H](N(C)C)C3)C(=O)C43CCN(C(=O)C4CCN(C(=O)C5CCN(c6ccc(C7CCC(=O)NC7=O)cn6)CC5)CC4)CC3)nc(Nc3ccccc3F)c21 (mixture of isomers) [Example 75, (3RS)-3-[6-(4-{4-[(6-{4-[(2-fluorophenyl)amino]-3-(propan-2-yl)-3H-imidazo[4,5-c]pyridin-6-yl}-2-oxo-1-[(1S,3S)-3-(dimethylamino)cyclobutyl]-1,2-dihydrospiro[indole-3,4′-piperidin]-1′-yl)carbonyl]piperidine-1-carbonyl}piperidin-1-yl)pyridin-3-yl]piperidine-2,6-dione]
100 to 500 nM | 70 to 85% | CC(C)n1cnc2cc(-c3ccc4c(c3)N([C@H]3C[C@@H](N5CCCCC5)C3)C(=O)C43CCN(C(=O)C4CCN(C(=O)C5CCN(c6ccc(C7CCC(=O)NC7=O)cn6)CC5)CC4)CC3)nc(NC3CC3)c21 (stereo partly drawn) [Example 73, 3-(6-(4-(4-(6-(4-(cyclopropylamino)-3-isopropyl-3H-imidazo[4,5-c]pyridin-6-yl)-2-oxo-1-((1S,3S)-3-(piperidin-1-yl)cyclobutyl)spiro[indoline-3,4′-piperidine]-1′-carbonyl)piperidine-1-carbonyl)piperidin-1-yl)pyridin-3-yl)piperidine-2,6-dione]
100 to 500 nM | 70 to 85% | CC(C)n1cnc2cc(-c3ccc4c(c3)N([C@H]3C[C@@H](N5CCCCC5)C3)C(=O)C43CCN(C(=O)C4CCN(C(=O)CN5CCN(c6ccc(C7CCC(=O)NC7=O)cn6)CC5)CC4)CC3)nc(Nc3ccncc3F)c21 (mixture of isomers) [Example 96, (3RS)-3-{6-[4-(2-{4-[(6-{4-[(3-fluoropyridin-4-yl)amino]-3-(propan-2-yl)-3H-imidazo[4,5-c]pyridin-6-yl}-2-oxo-1-[(1S,3S)-3-(piperidin-1-yl)cyclobutyl]-1,2-dihydrospiro[indole-3,4′-piperidin]-1′-yl)carbonyl]piperidin-1-yl}-2-oxoethyl)piperazin-1-yl]pyridin-3-yl}piperidine-2,6-dione]
< 100 nM | > 85% | CC(C)n1cnc2cc(-c3ccc4c(c3)N([C@H]3C[C@@H](N5CCCCC5)C3)C(=O)C43CCN(C(=O)C4(C)CCN(C(=O)[C@H]5CC[C@H](Oc6ccc(C7CCC(=O)NC7=O)cn6)CC5)CC4)CC3)nc(Nc3ccccc3F)c21 (mixture of isomers) [Example 105, (3RS)-3-(6-{1[(1R,4R)-4-{4-[(6-{4-[(2-fluorophenyl)amino]-3-(propan-2-yl)-3H-imidazo[4,5-c]pyridin-6-yl}-2-oxo-1-[(1S,3S)-3-(piperidin-1-yl)cyclobutyl]-1,2-dihydrospiro[indole-3,4′-piperidin]-1′-yl)carbonyl]-4-methylpiperidine-1-carbonyl}cyclohexyl]oxy}pyridin-3-yl)piperidine-2,6-dione]
100 to 500 nM | 50 to 70% | CC(C)n1cnc2cc(-c3ccc4c(c3)N([C@H]3C[C@@H](N5CCCCC5)C3)C(=O)C43CCN(C(=O)C4CCN(C(=O)[C@@H]5CCN(c6ccc(C7CCC(=O)NC7=O)cn6)C5)CC4)CC3)nc(Nc3ccccc3F)c21 (mixture of isomers) [Example 47, (3RS)-3-{6-[(3R)-3-{4-[(6-{4-[(2-fluorophenyl)amino]-3-(propan-2-yl)-3H-imidazo[4,5-c]pyridin-6-yl}-2-oxo-1-[(1S,3S)-3-(piperidin-1-yl)cyclobutyl]-1,2-dihydrospiro[indole-3,4′-piperidin]-1′-yl)carbonyl]piperidine-1-carbonyl}pyrrolidin-1-yl]pyridin-3-yl}piperidine-2,6-dione]
100 to 500 nM | 70 to 85% | CC(C)n1cnc2cc(-c3ccc4c(c3)N([C@H]3C[C@@H](N5CCCCC5)C3)C(=O)C43CCN(C(=O)[C@@H]4CCC[C@H](NC(=O)CC5CCN(c6ccc(C7CCC(=O)NC7=O)cn6)CC5)C4)CC3)nc(NC3CC3)c21 (mixture of isomers) [Example 292, N-[(1S,3R)-3-({6-[4-(cyclopropylamino)-3-(propan-2-yl)-3H-imidazo[4,5-c]pyridin-6-yl]-2-oxo-1-[(1s,3s)-3-(piperidin-1-yl)cyclobutyl]-1,2-dihydrospiro[indole-3,4′-piperidin]-1′-yl}carbonyl)cyclohexyl]-2-(1-{5-[(3RS)-2,6-dioxopiperidin-3-yl]pyridin-2-yl}piperidin-4-yl)acetamide]
500 to 1000 nM | 50 to 70% | CC(C)n1cnc2cc(-c3ccc4c(c3)N([C@H]3C[C@@H](N5CCCCC5)C3)C(=O)C43CCN(C(=O)C4(C)CCN(C(=O)C5CCN(c6ccc7c(c6)C(=O)N(C6CCC(=O)NC6=O)C7=O)CC5)CC4)CC3)nc(NC3CC3)c21 (some centres unmarked) [Example 121, 5-{4-[4-({6-[4-(cyclopropylamino)-3-(propan-2-yl)-3H-imidazo[4,5-c]pyridin-6-yl]-2-oxo-1-[(1s,3s)-3-(piperidin-1-yl)cyclobutyl]-1,2-dihydrospiro[indole-3,4′-piperidin]-1′-yl}carbonyl)-4-methylpiperidine-1-carbonyl]piperidin-1-yl}-2-(2,6-dioxopiperidin-3-yl)-2,3-dihydro-1H-isoindole-1,3-dione]
< 100 nM | 70 to 85% | CC(C)n1cnc2cc(-c3ccc4c(c3)N([C@H]3C[C@@H](N5CCCCC5)C3)C(=O)C43CCN(C(=O)C4(C)CCN(C(=O)C5CCN(c6ccc(C7CCC(=O)NC7=O)cc6)CC5)CC4)CC3)nc(NC3CCOCC3)c21 (mixture of isomers) [Example 196, (3RS)-3-[4-(4-{4-methyl-4-[(6-{4-[(oxan-4-yl)amino]-3-(propan-2-yl)-3H-imidazo[4,5-c]pyridin-6-yl}-2-oxo-1-[(1S,3S)-3-(piperidin-1-yl)cyclobutyl]-1,2-dihydrospiro[indole-3,4′-piperidin]-1′-yl)carbonyl]piperidine-1-carbonyl}piperidin-1-yl)phenyl]piperidine-2,6-dione]
100 to 500 nM | 70 to 85% | CC(C)n1cnc2cc(-c3ccc4c(c3)N([C@H]3C[C@@H](N5CC6CCC(C5)O6)C3)C(=O)C43CCN(C(=O)C4(C)CCN(C(=O)C5CCN(c6ccc(C7CCC(=O)NC7=O)cn6)CC5)CC4)CC3)nc(NC3CC3)c21 (mixture of isomers) [Example 204, (3RS)-3-(6-{4-[4-({6-[4-(cyclopropylamino)-3-(propan-2-yl)-3H-imidazo[4,5-c]pyridin-6-yl]-2-oxo-1-[(1S,3S)-3-{8-oxa-3-Azabicyclo[3.2.1]octan-3-yl}cyclobutyl]-1,2-dihydrospiro[indole-3,4′-piperidin]-1′-yl}carbonyl)-4-methylpiperidine-1-carbonyl]piperidin-1-yl}pyridin-3-yl)piperidine-2,6-dione]

Structure (SMILES) | DC50 | Dmax
CC(C)n1cnc2cc(-c3ccc4c(c3)N([C@H]3C[C@@H](N5CCCCC5)C3)C(=O)C43CCN(C(=O)C4(C)CCN(C(=O)C5CCN(c6ccc(C7CCC(=O)NC7=O)cn6)CC5)CC4)CC3)nc(NC3CC3)c21 (mixture of isomers) [Example 113, (3RS)-3-(6-{4-[4-({6-[4-(cyclopropylamino)-3-(propan-2-yl)-3H-imidazo[4,5-c]pyridin-6-yl]-2-oxo-1-[(1S,3S)-3-(piperidin-1-yl)cyclobutyl]-1,2-dihydrospiro[indole-3,4′-piperidin]-1′-yl}carbonyl)-4-methylpiperidine-1-carbonyl]piperidin-1-yl}pyridin-3-yl)piperidine-2,6-dione] | < 100 nM | 70 to 85%

Reference: patent publication US12091426B2, “Bifunctional degraders of hematopoietic progenitor kinase and therapeutic uses thereof” (Nurix Therapeutics, Inc., priority 2021, dated 2024)
